# In patent US7598244B2, “[1,2,4]triazolo[1,5,a]pyrimidin-2-ylurea derivative and use thereof” (Nippon Kayaku Kabushiki Kaisha, priority 2003, dated 2009):
# Columns and labels:
# [1] = tested on: MHC class I molecules of T1 cells (human lymphoma cell line 174×CEM.); assay: Effect on expression of MHC class I from T1 cells (flow cytometry, MFI); format: cell-based; details: 3 days culture
# In short: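 EC20 is the compound level that lowers MHC class I MFI by 20% relative to compound-free cultures. Read-out was flow cytometry after FITC W6/32 staining.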
# [2] = tested on: human dendritic cells cultured with human allogenic T cells; assay: Effect on the ability of human dendritic cells to induce the growth of allogenic T cells ([3H]-thymidine incorporation); format: cell-based; details: Homo sapiens; dendritic cells treated 3 days with test compound and TNF-α, then 5 days with allogenic T cells; read-out: IC50 (inhibition of DNA synthesis of lymphocytes)
# In short: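 Immature human dendritic cells matured 3 days with compound plus TNF-α, then co-cultured with allogeneic T cells (2.5×10^3 DC : 2.0×10^5 T per well) for 5 days at 37 °C, 5% CO2. [3H]-thymidine added for the final 16 h; incorporation counted, inhibition versus compound-free cultures, IC50 derived.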
# [3] = tested on: BALB/c mice; assay: Effect on mouse plaque forming cells (PFCs) to sheep erythrocytes; format: in vivo; details: Oral, 50 mg/kg/single administration, twice a day for 4 days
# Description: Effect on Mouse Plaque Forming Cells (PFCs)
# Sheep erythrocytes (Nippon Seibutsu Zairyo Center, Co., Ltd.) were intraperitoneally administered to each of BALB/c mice (Charles River Japan, Inc.; female; 8-week-old) at an amount of 1.0×10^8 cells. Thereafter, a test compound was administered thereto twice a day for 4 days after the first administration (only once on the first day) (n=4). On the day subsequent to completion of the administration of the test compound, splenic cells were prepared from the mouse, and the number of PFCs to the sheep erythrocytes was counted by the method of Cunninham (Cunninham, A. J. et al., Immunology, vol. 14, p. 599 (1968)). The number of PFCs per number of splenic cells of 1.0×10^6 was obtained. The reduction rate of the number of PFC in the mouse to which the test compound had been administered, to the number of PFCs in a control mouse to which the test compound had not been administered but only a solvent had been administered, was calculated using the following formula (4).
# [formula] • Eexp: The number of PFCs per 1×10^6 splenic cells of mouse to which test compound was administered • Cexp: The number of PFCs per 1×10^6 splenic cells of mouse to which solvent was administered
# [4] = tested on: CD1a; assay: Expression of antigen-presenting and costimulatory molecules of human peripheral blood-derived dendritic cells: CD1a; format: cell-based; details: Analyte 1 (dendritic cells of one healthy subject), 3 days
# Description: Action on Expression of Antigen-Presenting Molecules and Costimulatory Molecules of Human Peripheral Blood-Derived Dendritic Cells
# The dendritic cells obtained by the same method as in Test Example 2 were suspended in RPMI 1640 comprising 10% FCS containing 500 U/ml GM-CSF, 50 ng/ml IL-4, and 100 U/ml human recombinant tumor necrosis factor (2.5×10^6 cells/ml). Thereafter, the suspension was inoculated into a 6-well plate at an amount of 2.0 ml/well, and the test compound was then added thereto. The mixture was cultured at 37° C. for 3 days in an incubator containing 5% carbon dioxide. Thereafter, the suspended cells were recovered. The cells were then stained with fluoroisothiocyanate-labeled mouse monoclonal antibodies reacting with MHC class I (Bechman Coulter), CD1a (Immunotech), CD40 (Pharmingen), CD80 (Pharmingen), and CD83 (Immunotech). Thereafter, mean fluorescence intensity and the ratio of positive cells were measured by flow cytometry. The expression level was calculated by the formula “the mean fluorescence intensity x the ratio of positive cells,” and the inhibition rate of the surface antigen expression level of dendritic cells was then obtained by the following formula (8). […]
compound,measurement,setting,value
"CC(C)NC(=O)Nc1nc2nccc(-c3cccs3)n2n1 [Example 029, 1-isopropyl-3-(7-thiophen-2-yl[1,2,4]triazolo[1,5-a]pyrimidin-2-yl)urea]",EC20 (concentration necessary for suppressing 20% of the expression level of MHC class I molecules),[1],0.234 µM
same,IC50,[2],3.48 µM
same,Reduction rate (%) of number of PFCs,[3],49.3%
same,"Expression inhibition rate by test compound (%), CD1a",[4],55.6%
